Laboratory results reported in patent US20210170033A1, “NOVEL CONJUGATES OF A PHARMACEUTICAL AGENT AND A MOIETY CAPABLE OF BINDING TO A GLUCOSE SENSING PROTEIN” (SANOFI, priority 2017, published 2021).
Where two headings read alike, the source gives them in different places.

Tests used:
A2780 cells = test: Deoxy-glucose uptake assay in A2780 cells (14C 2-deoxy-D-glucose transport); format: cell-based; conditions: Homo sapiens, 20 min; inhibition of 14C 2-deoxy-D-glucose transport into A2780 cells; 20 min compound incubation; read-out: IC50
Procedure, shortened: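 Radiolabelled 2-deoxy-D-glucose transport over 20 min was scintillation-counted in A2780 cells, grown 48 h, after 20 min compound exposure in KRB. Untreated cells gave the 100% reference, with Cytochalasin B defining background. IC50 values were regressed from triplicate means across 7 or 14 concentrations.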

hGLUT1 protein = target: T1, hGLUT1 protein (Homo sapiens, UniProt P11166); test: NanoBRET-based GLUT1-binding assay in HEK cells; conditions: for BRET interference signal using Glucose: check of HiBit-tagged GLUT1 HEK cell line, stereoselective signal
T1 construct: fused on or other part: 11-amino-acid HiBiT peptide tag (small part of nanoluciferase) inserted into the first extracellular loop of GLUT1
T1 sequence (P11166 1-492): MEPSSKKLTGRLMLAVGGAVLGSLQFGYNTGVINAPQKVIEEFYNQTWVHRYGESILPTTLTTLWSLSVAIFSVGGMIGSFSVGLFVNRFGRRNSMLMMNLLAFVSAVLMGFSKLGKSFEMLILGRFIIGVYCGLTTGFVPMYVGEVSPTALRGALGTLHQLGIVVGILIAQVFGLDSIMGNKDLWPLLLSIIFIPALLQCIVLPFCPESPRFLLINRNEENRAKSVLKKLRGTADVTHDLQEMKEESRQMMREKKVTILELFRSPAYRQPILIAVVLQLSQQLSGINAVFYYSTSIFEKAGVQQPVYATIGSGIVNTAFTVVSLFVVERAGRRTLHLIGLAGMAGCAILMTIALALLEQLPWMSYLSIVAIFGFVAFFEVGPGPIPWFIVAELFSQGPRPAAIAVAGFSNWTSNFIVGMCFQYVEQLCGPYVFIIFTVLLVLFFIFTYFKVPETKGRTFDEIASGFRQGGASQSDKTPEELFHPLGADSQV
Description: 3. NanoBRET-Based GLUT1-Binding Assays in HEK Cells
To measure binding of compounds to the hGLUT1 protein, the newly-developed NanoBRET platform from Promega is used. In this technology binding is measured via Foerster Resonance Energy Transfer. Foerster Resonance Energy Transfer is based on a direct, radiation-free energy transfer from donor to acceptor and can only take place when donor and acceptor are within nm distance. As donor energy the bioluminescence light of nanoluciferase is used, therefore this application is referred to as BRET (Bioluminescence Resonance Energy Transfer). Nanoluciferase is a protein that emits light when the appropriate substrate is available.
Nanoluciferase is attached to GLUT1 via protein complementation using the HiBit protein tagging system (Promega). […] The HiBit peptide tag is used as a landing pad for the so called Large Bit protein that is commercially available from Promega and added to the medium. Large Bit has a high affinity for HiBit tag resulting in protein complementation to a fully-functional nanoluciferase, which is used as energy donor in the NanoBRET assay system.
To obtain a HEK cell line expressing HiBit-tagged GLUT1, cells were transfected with the appropriate construct placed behind the tetracycline-inducible promoter (Flipin T-Rex system from Thermo Fisher, K650001) and a cell line was generated.
As NanoBRET acceptor a GLUT1 inhibitor described by Siebeneicher et al. (Siebeneicher H., Bauser M., Buchmann B., et al. Identification of novel GLUT inhibitors. Bioorganic & Medicinal Chemistry Letters 2016; 26(7):1732-7; compound 53) was reduced to the aminobenzyl derivative and coupled to the fluorophore NanoBRET618 (Promega) and is referred to as “Bayer+NB618”.
For the assay 50 μl with 7500 cells (HiBit-tagged GLUT1 HEK cells) are plated into 384 poly-D-lysine-coated black μClear plates (Greiner) in DMEM (Gibco 61966) medium supplemented with 10% tetracycline-free FCS (PAN P30-3602) and 300 ng/ml doxycycline (Sigma 9891) to induce the induction of the HiBit-tagged GLUT1 protein.
Incubation of Compound and Acceptor Molecule
After getting adherent by overnight incubation at 37° C. and 10% CO2, the medium is replaced by 10 μl imaging medium (1% BSA (Sigma A9576), 5 mM Hepes (Gibco 15630), 0.35 mM Na-bicarbonate (Gibco 11360-039), 1 mM Na-Pyruvate (Gibco 11360) in PBS buffer (Gibco14040)). 5 μl Bayer+NB618 (in imaging medium, final concentration 75 nM) is added and the plates are incubated for 15 minutes statically at room temperature.
A serial dilution of the test compounds is prepared in imaging medium and added in 10 μl to the respective wells. As a positive control for displacement values from wells incubated with 200 mM D-Glucose (Sigma G8769) are used. Plates are incubated for 30 minutes at room temperature without shaking.
Generating Luminescence and Measuring Fluorescence
This detection solution is made in the buffer provided. After addition of the detection reagent, the samples are incubated for 30 minutes without shaking and subsequently the luminescence and fluorescence emissions are measured simultaneously on the PHERAstar FSX (BMG Labtech) using the appropriate dual filter setup. This filter setup is made up of a 450-80 nm band pass filter to measure the donor signal peaking at 460 nm and a long pass filter starting at 610 nm to measure the fluorescence emission of NanoBRET 618, which peaks at 621 nm and continues beyond 700 nm.
From the raw luminescence and fluorescence values, the NanoBRET ratios are calculated, being the ratio of the fluorescence signal divided by the luminescence signal. Mean values are obtained from at least duplicates.
For percentage inhibition results, the mean value of the not-compound-treated cells is set as 0%. The mean BRET value of the cells treated with 200 mM glucose is used for maximal inhibition. All other mean values were calculated to this relation. […]

[1] = system: A2780 Human Carcinoma Cells; test: Glucose displacement assay (ATP measurement, CellTiter-Glo); format: cell-based; conditions: ATP measurement in A2780 cells, 0.5 μM rotenone
Procedure, shortened: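 Cells were glucose-starved for 2 h in 1% FCS medium, then treated with compound in KRB buffer for 20 min at 37 °C with rotenone at 0.5 μM final. Glucose (typically 0.1–10 mM) was added for 15 min at 37 °C. ATP was measured by CellTiter-Glo luminescence.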

[2] = displacement of Bayer+NB618 (75 nM) from HiBit-tagged GLUT1 HEK cells, mean of measurements done twice in duplo, read-out: IC50
[3] = 1 mM glucose, read-out: IC50 [μM] at 1 mM glucose
[4] = 10 mM glucose, read-out: IC50 [μM] at 10 mM glucose

IC50 (A2780 cells)	IC50 (hGLUT1 protein; [2])	IC50 [1, 3]	IC50 [1, 4]	Compound	IC50 (hGLUT1 protein)	BRET interference signal using Glucose (hGLUT1 protein)
0.4 µM	6.98 µM			COC(=O)/C=C/c1ccc(COc2cc(OC)c(C(=O)N[C@H]3[C@@H](OC)O[C@H](CO)[C@@H](O)[C@@H]3O)cc2Cl)cc1 [Example 370]		
0.9 µM	17.2 µM			COc1cc(OCc2cccc(OCCCC(=O)OC(C)(C)C)c2)c(Cl)cc1C(=O)N[C@H]1[C@@H](OC)O[C@H](CO)[C@@H](O)[C@@H]1O [Example 393]		
3 µM	0.19 µM	1.86 µM	7.95 µM	COC(=O)[C@H](CCC(=O)NCc1cccc(COc2c(Cl)cc(C(=O)O[C@H]3[C@@H](OC)O[C@H](CO)[C@@H](O)[C@@H]3O)c(C)c2Cl)c1)NC(=O)OC(C)(C)C [Example 306]		
3.9 µM	> 30 µM			C#CCCCn1c(COc2cc(OC)c(C(=O)O[C@@H]3[C@@H](O)[C@@H](OC)O[C@H](CO)[C@H]3O)cc2Cl)nc2ccccc21 [Example 367]		
0.02 µM	0.22 µM	0.51 µM	1.13 µM	C#CCCCCCn1c(COc2c(Cl)cc(C(=O)O[C@H]3[C@@H](OC)O[C@H](CO)[C@@H](O)[C@@H]3O)c(C)c2Cl)nc2ccccc21 [Example 320]		
0.4 µM	9.49 µM	0.35 µM	4.55 µM	COc1cc(OCc2ccc3c(c2)nnn3C)c(Cl)cc1C(=O)O[C@H]1[C@@H](OC)O[C@H](CO)[C@@H](O)[C@@H]1O [Example 340]		
0.7 µM	8.3 µM	3.07 µM	9.21 µM	COc1cc(OCc2cccc(NC(=O)OC(C)(C)C)c2)c(Cl)cc1C(=O)N[C@H]1[C@H](OC)O[C@H](CO)[C@@H](O)[C@@H]1O [Example 415]		
	9.77 µM	1.64 µM	22.4 µM	COC(=O)c1ccn2cc(COc3cc(OC)c(C(=O)N[C@H]4[C@@H](OC)O[C@H](CO)[C@@H](O)[C@@H]4O)cc3Cl)nc2c1 [Example 416]		
				O=C[C@H](O)[C@@H](O)[C@H](O)[C@H](O)CO [D-Glucose, reference compound]	5330 ± 560 µM	decreases BRET
0.1 µM	2.83 µM			CO[C@H]1O[C@H](CO)[C@@H](O)[C@H](O)[C@H]1NC(=O)c1cc(Cl)c(OCc2nc3ccccc3n2CCCCCCNC(=O)OC(C)(C)C)c(Cl)c1C [Example 305]		
				O=C[C@@H](O)[C@H](O)[C@@H](O)[C@@H](O)CO [L-Glucose, reference compound]		no effect on BRET
0.1 µM	0.24 µM	< 0.12 µM	0.288 µM	C#CCCCn1c(COc2c(Cl)cc(C(=O)O[C@H]3[C@@H](OC)O[C@H](CO)[C@@H](O)[C@@H]3O)c(C)c2Cl)nc2ccccc21 [Example 212]		
1.8 µM	4.41 µM			CO[C@H]1O[C@H](CO)[C@@H](O)[C@H](O)[C@H]1OC(=O)c1cc(Cl)c(OCc2cccc(CNC(=O)OC(C)(C)C)c2)c(Cl)c1C [Example 202a]		
1.6 µM	13.6 µM	0.56 µM	> 33 µM	C#CCCCn1c(COc2cc(OC)c(C(=O)N[C@H]3[C@@H](OC)O[C@H](CO)[C@@H](O)[C@@H]3O)cc2Cl)nc2ccccc21 [Example 328]		
